In patent US7572913B2, “4-substituted piperidine derivatives” (Bioaxone Therapeutique Inc., priority 2004, dated 2009):
Values joined by “and” are separate entries in the source; they are usually repeats but may differ in a detail not shown here. Identical values can stand only once. Like-named read-outs stand apart in the source and are kept apart here.

Assays:
ROCKII = target: T1, ROCKII (Rattus norvegicus, UniProt Q62868); assay: ROCKII inhibition at a single concentration of 10 μM (selectivity histogram, Table 3); type: biochemical; settings: for Percent Rock inhibition at 10 micromolar: Table 3, compound at 10 micromolar
T1 construct: purchased Upstate Ltd. (United Kingdom)
Description: Compounds of this invention can be evaluated for kinase inhibition activity as solutions in 100% DMSO at a concentration of 10 μM added to GSK3β(h) and to ROCK-II(r) with ATP present at a concentration of 100 μM. Samples of compounds of this invention can be tested at 10 μM.
The data can be presented as relative ROCK kinase inhibition at a reference compound concentration of 3.5 uM and at 35 μM, wherein 0 signifies complete inhibition under the ATP concentration tested (100 μM). ROCK kinase activity is the opposite of ROCK kinase inhibition, and is compared with the GSKB kinase activity.
(§1) Experiments were done in duplicate. ATP was present at 100 μM in the assay.
(§2) The values were expressed in a percentage of inhibition of each kinase. Experiments were done in duplicate. ATP was present at 100 μM in the assay.
(§3) Percent net neurite outgrowth at 35 micromolar concentrations are presented in Table 3 together with percent Rock inhibition at 10 micromolar for three compounds designated BA-1043, BA-1049, and BA-1050. […] It should be noted that percent Rock activity is equal to 100% minus percent Rock inhibition.

NG108 cells = assay: Bioassay of neurite outgrowth in NG108 cells on plastic; type: cell-based; settings: compound at 35 micromolar
Description: as §3

PRK2 = PRK2 (Homo sapiens, UniProt Q16513); settings: FIG. 5; compound at 10 μM; ATP 100 μM; duplicate
Description: Samples can also be tested at 10 μM against CDK5/p35(h), JNK1α1(h), MAPK1(h), PKA(b), PKCα(h), PRK2(h), ROCK-II(r), […], PKBα(h), and Fyn(h) with ATP at 100 μM.
as §2

ROCK-II(h) = ROCK-II(h) (Homo sapiens, UniProt O75116); settings: for % Control (single replicate) / Activity (% Control): ATP 100 micromolar; for % Control (single replicate): individual replicates; for Activity (% Control): mean of duplicate
Description: ROCK II (purchased from Upstate, Lake Placid, N.Y.) activity is assayed in 20 mM MOPS, pH 7.2, 25 mM β-glycerophosphate, 5 mM EGTA, 1 mM sodium orthovanadate, 1 mM dithiothreitol with dephosphorylated myelin basic protein (MBP, 0.2 mg/ml) as substrate with or without addition of a reference Rho kinase inhibitor. Activity assay reactions are performed for 30 min at 30° C. in 50 μl volumes using radiolabeled [32P] ATP (from Perkin-Elmer). The concentrations of ATP and magnesium chloride are 100 μM and 75 mM respectively. Assay reactions are initiated by adding Mg2+/ATP to each reaction mixture and are terminated by spotting 40 μl of each reaction mixture onto phosphocellulose paper (P81 paper, Whatman), followed by washes in 0.75% phosphoric acid to remove ATP followed by drying. The spotted paper is placed in scintillation cocktail and counted to measure 32P incorporation. Radioactivity is measured using a scintillation counter. Percent activity for a particular concentration of inhibitor is calculated as 100*(a−b)/(c−b), where a=cpm (enzyme+inhibitor), b=cpm (autophosphorylation of substrate and kinase) and c=cpm (enzyme−inhibitor). A dose-response chart is prepared for each inhibitor compound evaluated, then an IC50 (inhibitor concentration at 50% inhibition) determination is made as a measure of the potency of the compound as an inhibitor of Rho kinase. A plot of the log of concentration of test inhibitor compound (x axis) and the percent inhibition of kinase activity (y axis) is prepared. […] Experiments are done in duplicate or triplicate. ROCK II and dephosphorylated myelin basic protein (MBP) can be purchased from Upstate (Lake Placid, N.Y.). ATP is from Boehringer Mannheim and [γ-32P] ATP is from Perkin-Elmer. ROCK-II(h) is human ROCK-II.
Kinase inhibitors frequently compete with ATP binding and are ATP-competitive. Drug concentration required for 50% inhibition (IC50) depends on the concentration of ATP used in the assays.
An IC50 value for a compound of this invention can be determined from a plot of concentration of compound of this invention versus kinase activity of ROCK-II(h). The IC50 value for a compound of this invention can be expressed in units of micromolar, nanomolar, picomolar, and the like.
In the table, the concentration of the rho kinase inhibitor is micromolar, CPM is counts per minute, and SD is standard deviation. The rho kinase inhibitor activity was tested in duplicate. In each case, the kinase activity is expressed as a percentage of that in control incubations. IC50 values were derived by PRISM at Upstate. ATP concentration was 100 micromolar.

HUVEC cells [1] = assay: Endothelial cell migration, Boyden chamber with VEGF; type: cell-based, human; settings: 50 μM; 20 h; 10 ng/mL VEGF; fibronectin-coated transwells
Description: A common assay uses Boyden or Transwell chambers, a compartmentalized cell cultures system. Cells are plated in the upper compartment of the Transwell chamber, and the ability of a compound under evaluation to block cell migration through, for example the pores of a Fluoroblok membrane, to the bottom compartment is measured. […] Typically, a chemoattractant is added to the bottom well or compartment. In the case of endothelial cells, a useful chemoattractant is vascular endothelial growth factor (VEGF). […] Experiments can be performed in 24-well plates (individual insert or multiwell insert) or in 96-multiwell insert plates with appropriate correction for volume and cell density. […] Following incubation with the cell dye, fluorescence from invaded cells is read in a fluorescence plate reader with bottom reading capabilities at excitation/emission wavelengths of 485/530 nm without further manipulation. Only those labeled cells that have migrated through the pores of the Fluoroblok membrane will be detected.
The data may be expressed as either fluorescent units (FU) or as “fold migration”, i.e., the FU value of the cells migrating through the fibronectin coated insert membrane in response to a chemoattractant with inhibitor relative to the FU value of a control, i.e., without inhibitor. […]

MSK1 = MSK1 (Homo sapiens, UniProt O75582); settings: FIG. 5; compound at 10 μM; ATP 100 μM; duplicate
Description: as §2

human plasma proteins = settings: for Bound (%) / Unbound (%): equilibrium dialysis 24 h, 37° C.
Description: Plasma or serum protein binding assays using the equilibrium dialysis method are used to determine drug availability. Equilibrium dialysis studies using a 96-well microplate format or using conventional 2-chambered Teflon dialysis cells can be used to determine plasma or serum binding, and LC/MS/MS analysis is used for test compound quantification. The Teflon dialysis cell system is commonly used to determine the time to reach equilibrium, the fraction of a compound bound and unbound to plasma proteins and the effect of concentration on the extent of binding. Test compound quantification is performed by HPLC or LC/MS/MS analysis.
To perform equilibrium dialysis the following procedures can be used. To 0.990 mL of thawed plasma (37° C.), a 10 μL aliquot of the stock solutions is added for test compound concentrations of 35 μM. An appropriate volume of buffer (Dulbecco's phosphate buffered saline, pH 7.4) is spiked with each test compound at a concentration of 35 μM. Duplicate aliquots (130 μL) of each spiked plasma and buffer solution are collected prior to dialysis into labeled 1.5 mL polypropylene tubes and stored frozen at −40° C. […] Equilibrium dialysis is performed in a 96-well Teflon dialysis unit. Each well of the unit consists of two chambers separated by a vertically aligned dialysis membrane (regenerated cellulose) with a molecular weight cut-off of 12-14 KDa. The equilibrium dialysis membranes are first pre-soaked in deionized water for 30 min, then soaked in 20% ethanol for 20 min, followed by rinsing twice with deionized water. The equilibrium dialysis apparatus is assembled according to the manufacturer's directions. One chamber of each well is filled with 150 μL of blank buffer (to prevent membrane dehydration). Aliquots (150 μL) of spiked plasma or spiked buffer are added to the opposing chamber in each well. The top of the plate is sealed with an adhesive sealing film to prevent evaporation and to maintain constant pH during incubation. All dialysis experiments with the test compounds and standards are assessed using duplicate samples. The dialysis apparatus is incubated at 37° C. in an orbital shaker/incubator (Lab-Line Enviro) samples are collected following 24 hours of incubation. Samples containing the test compounds are stored frozen at −70° C. until analysis. Samples (100 μL) containing the radiolabels are added and mixed by vortex. The disintegrations per minute (dpm) in each vial are measured with a liquid scintillation counter. The fraction of each test compound and standard unbound (fu) to human serum proteins is calculated according to the following equation:
[formula] wherein Cbuffer and Cplasma represent the concentration of the compound measured in the buffer and plasma chambers, respectively, following dialysis. The fraction bound (fb) to the plasma proteins is determined as: 1−fu.

[2] = system: Caki cells (human renal cancer line) subcutaneous tumors; settings: 50 μL PBS with 40 μM E-23a injected into tumor every day for two weeks; 6 mice; vehicle control 304%
Description: An in vivo model to test anti-proliferative activity of test compounds is a subcutaneous (s.c.) tumor model. In this model, human cancer cells are seeded into mice by a subcutaneous injection. Typically immune-compromised mouse cell lines are used, such as CD-1 nude mice, to prevent a graft rejection response. The test compound is administered as a formulation in a pharmaceutically acceptable vehicle suitable for injection use, such as isotonic phosphate buffered saline (PBS), by injection into the tumor. Different dosing schedules can be tested and compared with mice receiving injection of vehicle control. Before implantation into an animal, tumor cells are expanded in their specific tissue culture medium. Medium is changed 2 to 3 times per week. […] The tumor growth is monitored twice a week. Tumor volume is determined with a digital caliper and calculated using the formula: width^2×length×0.5. The length is taken at the basis of the tumors between the two most distant points of the tumor mass, whereas the width is measured right-angled to the length. […] Tumor volume and animal body weight are recorded twice a week.
Caki cells, which are a human renal cancer line were grown in tissue culture. […] Tumors were evaluated after 2 weeks of treatment after the final injection.

HUVEC cells [3] = assay: HUVEC capillary tube formation on ECMatrix; type: cell-based, human; settings: for relative amount of tube formation: 15,000 HUVEC cells on ECMatrix, 6-8 h
Description: HUVEC cells will form capillary tubes when plated on protein substrates composed of proteins found in the extracellular matrix. Typical substrates useful for experiments with HUVEC cells are Matrigel, fibronectin or collagen. Matrigel is composed of several proteins that make up the extracellular matrix. Extracelluar matrix substrates can be plated in tissue culture dishes as 3-dimensional cell culture substrates. Another reagent that can be used as a substrate is ECMatrix™ (Chemicon International, Temecula, Calif.), a reconstituted basement membrane matrix of proteins derived from the Engelbreth Holm-Swarm (EHS) mouse tumor. This substrate gels rapidly at 22-35° C. Thus, ECMatrix™ is thawed overnight on ice or in +4° C. A 96-well plate is pre-chilled, and 100μl of the ECMatrix solution is added to each well. The plate is incubated at 37° C. for at least one hour to allow the matrix solution to solidify. The HUVEC cells are harvested and resuspended in a standard cell growth media supplemented with endothelial cell growth supplements. The presence of serum (0.5-10%) is optional. EGM (endothelial cell growth media) can be used. The HUVEC cells are plated at a density of 5×10^3 to 1×10^4 cells per well onto the surface of the polymerized ECMatrix™, and then incubated overnight in a tissue-culture incubator. Cellular network structures are fully developed by 12 to 18 h, with the first signs apparent after 5-6 h. After 24 h, the cells begin to undergo apoptosis. To study the effect of anti-angiogenic factors, they can be added at the time of cell plating. Optional tissue culture vary depending on the cell type, age, and media growth conditions. The tubes are inspected under an inverted light microscope at 40×-200× magnification. Since there is a lack of contrast of the cellular networks, the cultures can be stained with any of the common cell staining procedures such as Diff-Quick or Wright-Giemsa or crystal-violet. The total capillary tube length measurement method is used to quantify the results. The total length of all the capillary tubes in several (3-10) view-fields is measured by Northern Eclipse software.
Photos are representative of 5 separate experiments.
Tranilast is used as a positive control. For this experiment, 15,000 HUVEC cells were plated on ECMatrix™ and incubated for 6-8 h alone before quantification. Results are presented as mean± SEM for one experiment analyzed in duplicate. […] It is used as a positive control.

HEC-1B cells = settings: 72 hours incubation; different concentrations; Alamar Blue
Description: For this assay, cells are thawed and passaged at least one time before the experiment. Cells are grown in a culture dish in media supplemented with serum and supplements appropriate for the test cell line. When they reach logarithmic growth, the cells are trypsinized to detach them from the culture dish and are counted. The cell pellet is resuspended and adjusted to 2-5×10^4 cells/ml. A 96-well microplate is used for the experiment and cells are plated at a density of 1000 to 5000 cells/well in 100 μL of growth media. The seeding density is noted to ensure that the cells in the control wells are not overgrown after the total incubation time. […] At the end of the incubation period, the fluorescence intensity is read with a 96-well microplate reader (excitation 530-560 nm; emission 590 nm), with bottom reading. The fluorescence generated in the AlamarBlue™ assay can be stopped and stabilized by the addition of 3% SDS. […]
For each concentration of test article, a % growth is calculated using the following equation, wherein • T0=fluorescence units at the time of test article addition (time 0) • C=fluorescence units for control (no test article) • Ti=fluorescence unit for test article (different dilution)
Cadmium sulfate hydrate (CAD) was used as a positive control. Following treatment, the rate of proliferation was measured using the Alamar Blue assay.

Caco-2 cells = settings: for B − A/A − B Papp ratio: Caco-2 monolayer
Description: After incubation, samples are taken from the apical and basolateral compartment and the concentration of the test compound is determined by LCMS (liquid chromatography/mass spectroscopy).
Stock cultures are sub-cultured every 7 days when cells have reached 80-90% confluency. Studies are conducted with Caco-2 cells, used between passage 21 to 40. Cells are plated on Transwell™ inserts at a density of 1×10^4 cells/well in 24-well culture plates. Cells are incubated at 37° C. under 5% CO2 atmosphere, and media (MEM Earles medium containing 10% FBS, 0.1 mM non-essential amino acids and 1 mM sodium pyruvate) are changed 3 times per week. Cells are used for permeability studies between 20 to 22 days after seeding. On the day of the assay, cell monolayers are washed 3 times. Each wash consists of aspirating liquid from the apical (A) and basolateral (B) sides, and adding 0.5 and 1 mL, respectively, of fresh Dulbecco's phosphate-buffered saline with Mg^2+ and Ca^2+, pH 7.4 (PBS). After the final wash, a volt-ohm-meter is used to determine the trans-epithelial electrical resistance (TEER), a measure of the integrity of the monolayer. Cells are not be used if the TEER values are less than 200 ohms/cm^2. Working solutions of the test compounds are prepared in PBS. […] For each test compound and standard, apical to basolateral (A to B) and basolateral to apical (B to A) transport is measured. The final volume on the basolateral side is 1 mL; the final volume on the apical side is 0.3 mL. The test compound working solution or radiolabeled standard solution is added to the ‘donor’ side. Blank buffer is added to the ‘acceptor’ side. […] The permeability of each compound and control is measured by sampling 200μL of medium from the acceptor compartment at time zero and following 60 minutes of incubation. […] A 3 mL aliquot of liquid scintillant is added to the vials, and disintegrations per minute (dpm) are determined in a liquid scintillation counter. […] The permeability of Lucifer Yellow is measured by sampling 100 μL of medium from the basolateral compartment following 60 minutes of incubation. […]

ROCKI = ROCKI (Homo sapiens, UniProt Q13464); settings: ATP 100 μM, duplicate
Description: as §1, §2

[4] = patients treated for stroke; cited from earlier work

Sequence of ROCK-II(h) (O75116 whole entry): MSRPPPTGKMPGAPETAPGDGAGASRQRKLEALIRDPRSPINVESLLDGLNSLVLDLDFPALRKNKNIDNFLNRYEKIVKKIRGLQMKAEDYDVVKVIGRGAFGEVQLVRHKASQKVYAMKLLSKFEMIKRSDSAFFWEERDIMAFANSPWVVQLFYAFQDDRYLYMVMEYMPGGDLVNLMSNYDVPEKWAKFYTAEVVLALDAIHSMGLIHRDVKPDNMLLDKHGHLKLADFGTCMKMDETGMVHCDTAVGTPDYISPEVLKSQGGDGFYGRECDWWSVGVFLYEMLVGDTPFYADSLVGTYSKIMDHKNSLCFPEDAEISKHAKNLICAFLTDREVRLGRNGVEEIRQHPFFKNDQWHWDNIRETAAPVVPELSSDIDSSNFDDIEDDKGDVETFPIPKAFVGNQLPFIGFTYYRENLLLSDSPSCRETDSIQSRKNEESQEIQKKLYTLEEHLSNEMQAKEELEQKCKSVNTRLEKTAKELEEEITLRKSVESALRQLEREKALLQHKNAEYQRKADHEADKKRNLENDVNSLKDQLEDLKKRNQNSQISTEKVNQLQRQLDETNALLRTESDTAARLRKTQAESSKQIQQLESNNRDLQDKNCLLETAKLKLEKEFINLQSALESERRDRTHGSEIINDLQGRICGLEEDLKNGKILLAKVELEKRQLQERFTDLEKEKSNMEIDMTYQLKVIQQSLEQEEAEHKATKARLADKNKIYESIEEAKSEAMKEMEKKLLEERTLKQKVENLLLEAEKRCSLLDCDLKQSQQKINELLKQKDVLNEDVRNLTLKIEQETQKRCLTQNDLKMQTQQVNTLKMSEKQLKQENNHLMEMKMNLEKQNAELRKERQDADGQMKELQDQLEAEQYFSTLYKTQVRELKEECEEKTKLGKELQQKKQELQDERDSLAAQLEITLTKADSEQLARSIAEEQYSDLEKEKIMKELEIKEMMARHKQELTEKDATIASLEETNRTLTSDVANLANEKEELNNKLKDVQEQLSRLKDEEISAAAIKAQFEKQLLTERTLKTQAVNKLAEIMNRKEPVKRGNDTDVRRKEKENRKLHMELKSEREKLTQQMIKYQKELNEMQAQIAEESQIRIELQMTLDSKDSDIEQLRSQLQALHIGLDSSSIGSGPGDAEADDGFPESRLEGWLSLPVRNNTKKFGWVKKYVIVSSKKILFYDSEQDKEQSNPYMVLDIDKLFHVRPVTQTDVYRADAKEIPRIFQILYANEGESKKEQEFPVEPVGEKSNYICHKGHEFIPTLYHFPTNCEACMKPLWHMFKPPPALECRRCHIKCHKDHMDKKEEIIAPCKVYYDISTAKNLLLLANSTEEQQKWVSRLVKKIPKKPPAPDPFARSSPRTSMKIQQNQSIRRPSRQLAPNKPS
T1 sequence (Q62868 whole entry): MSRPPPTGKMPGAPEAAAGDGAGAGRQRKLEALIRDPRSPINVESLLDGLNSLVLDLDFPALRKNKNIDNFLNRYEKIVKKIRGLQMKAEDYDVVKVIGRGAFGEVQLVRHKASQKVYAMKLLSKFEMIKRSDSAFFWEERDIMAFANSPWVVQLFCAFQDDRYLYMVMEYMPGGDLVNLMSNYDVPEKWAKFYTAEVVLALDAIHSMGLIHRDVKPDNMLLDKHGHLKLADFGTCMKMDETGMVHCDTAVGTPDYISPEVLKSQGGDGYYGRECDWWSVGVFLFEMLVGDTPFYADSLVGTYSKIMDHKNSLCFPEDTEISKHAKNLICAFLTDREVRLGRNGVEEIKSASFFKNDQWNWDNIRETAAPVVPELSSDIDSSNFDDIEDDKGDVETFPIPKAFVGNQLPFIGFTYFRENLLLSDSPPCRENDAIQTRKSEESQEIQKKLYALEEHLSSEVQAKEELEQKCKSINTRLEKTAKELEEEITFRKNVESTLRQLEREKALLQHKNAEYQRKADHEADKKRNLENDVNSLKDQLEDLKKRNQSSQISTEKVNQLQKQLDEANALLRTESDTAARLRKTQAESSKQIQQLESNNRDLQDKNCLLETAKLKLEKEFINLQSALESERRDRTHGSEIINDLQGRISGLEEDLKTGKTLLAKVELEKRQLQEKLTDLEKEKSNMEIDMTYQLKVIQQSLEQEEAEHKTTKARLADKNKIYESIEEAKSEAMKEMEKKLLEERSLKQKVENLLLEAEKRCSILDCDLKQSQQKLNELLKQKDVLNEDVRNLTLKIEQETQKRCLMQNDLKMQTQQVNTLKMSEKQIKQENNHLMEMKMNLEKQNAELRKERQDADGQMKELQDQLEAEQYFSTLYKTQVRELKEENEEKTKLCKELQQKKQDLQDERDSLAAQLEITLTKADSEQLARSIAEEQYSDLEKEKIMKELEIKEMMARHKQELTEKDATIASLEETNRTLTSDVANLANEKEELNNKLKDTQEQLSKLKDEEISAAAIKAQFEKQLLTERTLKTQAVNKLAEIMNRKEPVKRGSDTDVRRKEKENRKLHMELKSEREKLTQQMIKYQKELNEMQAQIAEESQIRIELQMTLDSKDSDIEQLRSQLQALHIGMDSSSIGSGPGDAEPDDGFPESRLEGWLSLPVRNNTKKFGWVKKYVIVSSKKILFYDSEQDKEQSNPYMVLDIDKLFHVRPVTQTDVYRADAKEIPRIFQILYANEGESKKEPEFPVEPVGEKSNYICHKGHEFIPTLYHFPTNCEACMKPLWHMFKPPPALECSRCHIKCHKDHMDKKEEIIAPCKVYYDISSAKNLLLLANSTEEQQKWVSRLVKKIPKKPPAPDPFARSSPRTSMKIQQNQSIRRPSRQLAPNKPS
Sequence of ROCKI (Q13464 whole entry): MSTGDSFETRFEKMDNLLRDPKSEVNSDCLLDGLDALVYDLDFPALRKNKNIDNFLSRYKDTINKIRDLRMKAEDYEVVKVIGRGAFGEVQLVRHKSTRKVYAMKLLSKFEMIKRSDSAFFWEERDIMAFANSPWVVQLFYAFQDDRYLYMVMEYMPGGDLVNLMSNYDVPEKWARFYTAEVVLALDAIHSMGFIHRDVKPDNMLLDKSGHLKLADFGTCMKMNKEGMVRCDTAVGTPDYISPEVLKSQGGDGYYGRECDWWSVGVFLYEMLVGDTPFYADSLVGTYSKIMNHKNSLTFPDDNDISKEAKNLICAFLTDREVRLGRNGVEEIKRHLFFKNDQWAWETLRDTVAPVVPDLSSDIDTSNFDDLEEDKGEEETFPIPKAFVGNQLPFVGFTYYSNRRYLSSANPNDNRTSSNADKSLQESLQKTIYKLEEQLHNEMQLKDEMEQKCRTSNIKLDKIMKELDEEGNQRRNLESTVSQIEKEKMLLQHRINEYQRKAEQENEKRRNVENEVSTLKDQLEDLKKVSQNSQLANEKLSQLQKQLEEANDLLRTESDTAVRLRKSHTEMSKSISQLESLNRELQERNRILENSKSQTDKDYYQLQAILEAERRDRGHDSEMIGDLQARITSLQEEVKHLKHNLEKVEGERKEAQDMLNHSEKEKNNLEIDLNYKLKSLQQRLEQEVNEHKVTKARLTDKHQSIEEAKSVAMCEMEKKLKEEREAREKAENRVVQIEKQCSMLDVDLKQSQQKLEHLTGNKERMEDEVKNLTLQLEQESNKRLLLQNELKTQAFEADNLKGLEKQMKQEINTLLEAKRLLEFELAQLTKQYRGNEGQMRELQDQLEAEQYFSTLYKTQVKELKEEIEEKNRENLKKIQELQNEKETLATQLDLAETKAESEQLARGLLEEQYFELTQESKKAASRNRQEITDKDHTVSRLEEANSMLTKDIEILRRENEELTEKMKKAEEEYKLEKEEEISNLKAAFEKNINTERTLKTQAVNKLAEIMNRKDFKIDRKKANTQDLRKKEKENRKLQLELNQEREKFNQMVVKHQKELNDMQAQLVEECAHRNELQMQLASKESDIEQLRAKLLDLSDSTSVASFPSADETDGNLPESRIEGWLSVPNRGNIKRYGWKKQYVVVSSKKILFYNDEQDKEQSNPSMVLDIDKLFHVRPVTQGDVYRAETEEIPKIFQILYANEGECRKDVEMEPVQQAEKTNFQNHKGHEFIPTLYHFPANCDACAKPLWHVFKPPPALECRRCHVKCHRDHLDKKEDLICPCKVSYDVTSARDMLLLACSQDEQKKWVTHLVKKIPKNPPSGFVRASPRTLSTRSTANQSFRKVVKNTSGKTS
Sequence of MSK1 (O75582 whole entry, species assumed): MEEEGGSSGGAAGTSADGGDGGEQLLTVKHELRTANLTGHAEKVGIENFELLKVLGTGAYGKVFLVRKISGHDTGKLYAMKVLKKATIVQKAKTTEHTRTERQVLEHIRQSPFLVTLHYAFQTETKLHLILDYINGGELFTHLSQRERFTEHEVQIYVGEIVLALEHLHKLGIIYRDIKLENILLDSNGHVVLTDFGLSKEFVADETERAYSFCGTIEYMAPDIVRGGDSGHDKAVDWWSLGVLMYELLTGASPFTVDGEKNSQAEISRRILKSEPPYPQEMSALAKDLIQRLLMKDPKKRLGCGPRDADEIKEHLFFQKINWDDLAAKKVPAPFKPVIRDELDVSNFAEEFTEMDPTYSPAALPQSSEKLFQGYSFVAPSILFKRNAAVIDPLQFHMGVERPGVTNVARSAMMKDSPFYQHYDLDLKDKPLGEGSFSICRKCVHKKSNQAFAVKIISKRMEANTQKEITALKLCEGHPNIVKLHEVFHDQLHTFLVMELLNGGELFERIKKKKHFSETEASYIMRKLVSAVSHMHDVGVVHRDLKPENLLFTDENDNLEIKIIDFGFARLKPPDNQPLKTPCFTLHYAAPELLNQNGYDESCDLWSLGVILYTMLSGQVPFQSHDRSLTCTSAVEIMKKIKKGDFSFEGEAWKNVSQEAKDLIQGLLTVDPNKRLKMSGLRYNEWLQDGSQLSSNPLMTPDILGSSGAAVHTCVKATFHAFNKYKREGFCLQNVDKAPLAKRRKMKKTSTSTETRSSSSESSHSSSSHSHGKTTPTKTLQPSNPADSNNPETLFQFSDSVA

CCCC(N)C1CCN(S(=O)(=O)c2cccc3cnccc23)CC1.Cl.Cl (racemic) [BA-1050, (R,S)-N-(5″-isoquinolinesulfonyl)-4-[butan-1′-amino]piperidine dihydrochloride]
Percent Rock inhibition at 10 micromolar (ROCKII): 79% | Percent Net Neurite Outgrowth at 35 micromolar (NG108 cells): 20.2%

CC(N)C1CCN(S(=O)(=O)c2cccc3cnccc23)CC1.Cl.Cl (racemic) [E-23a, (R,S)-N-(5″-isoquinolinesulfonyl)-4-[ethan-1′-amino]piperidine dihydrochloride]
percentage of inhibition of PRK2 (PRK2): 52% | % Control (single replicate) (ROCK-II(h); BA-1049 0.01 μM, dihydrochloride): 96 % Control and 104 % Control | Activity (% Control) (ROCK-II(h); BA-1049 0.01 μM): 100 % Control | % Control (single replicate) (ROCK-II(h); BA-1049 0.03 μM, dihydrochloride): 109 % Control and 86 % Control | Activity (% Control) (ROCK-II(h); BA-1049 0.03 μM): 98 % Control | % Control (single replicate) (ROCK-II(h); BA-1049 0.1 μM, dihydrochloride): 86 % Control and 102 % Control | Activity (% Control) (ROCK-II(h); BA-1049 0.1 μM): 94 % Control | % Control (single replicate) (ROCK-II(h); BA-1049 0.3 μM, dihydrochloride): 62 % Control and 74 % Control | Activity (% Control) (ROCK-II(h); BA-1049 0.3 μM): 68 % Control | % Control (single replicate) (ROCK-II(h); BA-1049 1 μM, dihydrochloride): 45 % Control and 50 % Control | Activity (% Control) (ROCK-II(h); BA-1049 1 μM): 48 % Control | % Control (single replicate) (ROCK-II(h); BA-1049 3 μM, dihydrochloride): 25 % Control and 27 % Control | Activity (% Control) (ROCK-II(h); BA-1049 3 μM): 26 % Control | % Control (single replicate) (ROCK-II(h); BA-1049 10 μM, dihydrochloride): 8 % Control and 16 % Control | Activity (% Control) (ROCK-II(h); BA-1049 10 μM): 12 % Control | % Control (single replicate) (ROCK-II(h); BA-1049 30 μM): 4 % Control | Activity (% Control) (ROCK-II(h); BA-1049 30 μM): 4 % Control | % Control (single replicate) (ROCK-II(h); BA-1049 100 μM, dihydrochloride): 0 % Control and 5 % Control | Activity (% Control) (ROCK-II(h); BA-1049 100 μM): 3 % Control | IC50 (ROCK-II(h); read-out: IC50, inhibition of ROCK-II(h), ATP 100 μM, duplicate, derived by PRISM): 0.791 µM | migration, % of the amount observed with Ctl+VEGF (HUVEC cells [1]): approximately 40% | percentage of inhibition of MSK1 (MSK1): 43% | percentage of inhibition of ROCKII (ROCKII; FIG. 5, compound at 10 μM, ATP 100 μM, duplicate): 83% | Percent Rock inhibition at 10 micromolar (ROCKII): 97% | availability in plasma (in words) (human plasma proteins; equilibrium dialysis): relatively available in the unbound form | Bound (%) (human plasma proteins): 7.26% | Unbound (%) (human plasma proteins): 92.7% | mean tumor size increase, % of initial tumor volume [2]: approximately 156 % of initial tumor volume | relative amount of tube formation (HUVEC cells [3]; 10 μM): approximately 40 % relative to control | relative amount of tube formation (HUVEC cells [3]; 50 μM): approximately 35 % relative to control | HUVEC tube formation relative to control (in words) (HUVEC cells [3]; E-23a 10 and 50 μM): substantially reduced | proliferation of HEC-1B cells (in words) (HEC-1B cells): reduced proliferation | B − A/A − B Papp ratio (Caco-2 cells): 1.31 | permeability (in words) (Caco-2 cells; Caco-2 permeability assay): good permeability | percentage of inhibition of ROCK I (ROCKI; FIG. 5, compound at 10 μM): 31% | IC50 (ROCKI; read-out: IC50, inhibition of ROCKI): 20.6 µM | Percent Net Neurite Outgrowth at 35 micromolar (NG108 cells): 39.0%

CC(C)NC[C@H](O)COc1cccc2ccccc12 [(S)-Propranolol, reference compound]
Bound (%) (human plasma proteins): 91.3% | Unbound (%) (human plasma proteins): 8.67%

CN(N)C1CCN(S(=O)(=O)c2cccc3cnccc23)CC1.Cl.Cl [BA-1043, N-(5′″-isoquinolinesulfonyl)-4-[N′-(1′-methyl)hydrazino]piperidine dihydrochloride]
Percent Rock inhibition at 10 micromolar (ROCKII): 61% | Percent Net Neurite Outgrowth at 35 micromolar (NG108 cells): 15.2%

CC1=NN(c2ccccc2)C(=O)C1 [Radicut, 3-methyl-1-phenyl-2-pyrazoline-5-one]
adverse effect in clinical use (in words) [4]: kidney toxicity

COc1ccc(C=CC(=O)Nc2ccccc2C(=O)O)cc1OC [Tranilast, N-(3′,4′-dimethoxycinnamoyl)anthranilic acid, reference compound]
migration, % of the amount observed with Ctl+VEGF (HUVEC cells [1]): approximately 30% | relative amount of tube formation (HUVEC cells [3]; 10 μg/mL): approximately 35 % relative to control | relative amount of tube formation (HUVEC cells [3]; 50 μg/mL): approximately 30 % relative to control

OC[C@@H](O)[C@@H](O)[C@H](O)[C@H](O)CO [[^3H]-Mannitol, reference compound]
B − A/A − B Papp ratio (Caco-2 cells): 0.81
